Experimental data taken from US12398117B2, “Heteroarylamidopyridinol derivative and pharmaceutical composition comprising same as active ingredient for prevention or treatment of autoimmune disease” (INNOVO THERAPEUTICS INC., priority 2019, dated 2025).

Tests used:
[1] = test system: adhesion of intestinal epithelial cells (HT-29) and monocytic cells (U937) induced by IL-6; experiment: Inhibition of IL-6-induced adhesion of monocytes and intestinal epithelial cells; type: cell-based, human; conditions: Homo sapiens
How it was run: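 HT-29 monolayers pretreated 1 h with test drug in 1% FBS medium, then co-incubated 3 h at 37 °C with BCECF-labeled U937 monocytes plus IL-6 (10 ng/mL). After removal of non-adherent cells, bound monocytes quantified by BCECF fluorescence of Triton X-100 lysates.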

[2] = test system: DSS-induced acute enteritis mouse model; experiment: Oral efficacy in DSS-induced acute enteritis mouse model; type: in vivo, C57BL/6 mice; conditions: for Body weight recovery rate (%) / Intestinal weight recovery rate (%): acute enteritis (DSS), mouse
Procedure: C57BL/6 mice aged 7-8 weeks were purchased from OrientBio (Korea), stabilized with general solid feed for 7 days, and then used in this experiment. Feed and water were freely supplied during the experiment period, and the temperature of the breeding room was maintained at 25±1° C. and the relative humidity at 50±10%. Lighting management was controlled in a 12-hour light-dark cycle by an automatic lighting controller.
Enteritis was induced in mice by allowing them to freely ingest drinking water containing 2% DSS salt (M.W. 36,000˜50,000, MP Biomedicals, LLC, OH, USA). For the chronic enteritis model, DSS was administered using a schedule of DSS administration for the first 7 days, administration of normal drinking water for 14 days, repeated administration of DSS for 7 days from the 21st day, and administration of normal drinking water for 7 days. The drug was administered once a day, 6 days a week from the first day of DSS treatment (FIG. 2A). […] In order to measure the dose-dependent therapeutic effect of the drug in the acute enteritis model, DSS was administered for 5 days to induce enteritis, and then the drug was administered for 14 days to measure the degree of recovery and treatment of enteritis (FIG. 3A). The drug was administered orally once daily for […] at a fixed time.
Changes in body weight of each mouse were observed during the DSS and drug administration using a digital mass meter.
The colon of the mouse was extracted, and the length and weight from the anus to the cecum were measured.
The degree of neutrophil infiltration in the tissue was measured by the amount of MPO, a neutrophil marker enzyme. The colon tissue with a size of 1 cm was washed with cold PBS and weighed, to which a lysis buffer (pH7.4, 200 mM NaCl, 5 mM EDTA, 10 mM tris, 10% glycerin, 1 mM PMSF, 1 μg/mL leupeptin and 28 μg/mL aprotinin) was added (500 μL of per 10 mg of tissue weight), and then homogenized using Bead Blaster® D2400 homogenizer (Benchmark Scientific, NJ, USA). […] (HK210, Hycult Biotechnology, Netherlands). The supernatant was added to a 96 well plate (100 μL/well) coated with an anti-mouse MPO antibody, and incubated for 1 hour at room temperature, followed by washing 3 times with a washing buffer. A reconstituted tracer was added to the plate (100 μL/well), which was reacted at room temperature for 1 hour, washed 3 times, and then 100 μL of streptavidin-peroxidase conjugate was added to each well of the plate. The plate was reacted at room temperature for 1 hour, washed, and 100 μl of TMB substrate solution was added to each well of the plate, followed by reaction for 30 minutes. The reaction was terminated by adding 100 μL of a stop solution to each well of the plate, and absorbance was measured at 450 nm. MPO activity means the amount of 1 μM […] at 25° C. for 1 minute. This was calculated as the amount of MPO contained in 1 mL of the colon tissue homogenate.
Tissue staining was performed in the same manner as in the case of hematoxylin/eosin staining of the rat colon tissue, and scoring indexes of mucosal damage and recovery were applied in the same way.

IC50 ([1]; inhibition of adhesion by IL-6): 340 nM
Compound: Cc1ccc2[nH]c(C(=O)Nc3nc(C)c(O)c(C)c3C)cc2c1 [Compound X-09, N-(5-hydroxy-3,4,6-trimethylpyridin-2-yl)-5-methyl-1H-indole-2-carboxamide]
inhibition at 1 µM ([1]; 3 h, test drug 1 μM, IL-6 10 ng/mL, HT-29/U937, read-out: inhibitory activity (%)): 71.7%
Morphological observation of colon, therapeutic effect versus tofacitinib ([2]; DSS acute mouse, 10 mg/kg, FIG. 3C): significantly superior to that of the control group treated with 30 mg/kg of tofacitinib
Morphological observation of colon ([2]; DSS acute mouse, X-09 dose range, FIG. 3C): dose-dependent therapeutic efficacy
level of MPO in colon tissue ([2]; DSS acute mouse, X-09 dose range, FIG. 3E): decreased by compound X-09 dose-dependently
Mucosal damage recovery of mouse colon (hematoxylin-eosin score) ([2]; DSS mouse, X-09 dose range, FIG. 4): dose-dependent mucosal damage recovery effect
Body weight recovery rate (%) ([2]; 0.3 mg/kg): 56.5%
Intestinal weight recovery rate (%) ([2]; 0.3 mg/kg): 48.4%
Body weight recovery rate (%) ([2]; 1 mg/kg): 72.0%
Intestinal weight recovery rate (%) ([2]; 1 mg/kg): 76.7%
Body weight recovery rate (%) ([2]; 3 mg/kg): 80.7%
Intestinal weight recovery rate (%) ([2]; 3 mg/kg): 89.0%
Body weight recovery rate (%) ([2]; 10 mg/kg): 88.1%
Intestinal weight recovery rate (%) ([2]; 10 mg/kg): 96.4%
